The series is described as follows: Assay (IV) determination of solubility. It is filed as physicochemical. On the procedure:
Assay (IV)—Determination of Solubility
The mimylin peptide was dissolved in water at ˜500 nmol/ml and mixed 1:1 with a series of buffers (100 mM glycylglycine pH 3.0, 100 mM glycylglycine pH 4.0, 100 mM glycylglycine pH 5.0, 100 mM bistrispropane pH 6.0, 100 mM bistrispropane pH 6.5, 100 mM bistrispropane pH 7.0, 100 mM bistrispropane pH 7.5, 100 mM bistrispropane pH 8.0).

≈ marks a conversion by molar mass, not a printed value. Numbered stars: 1 amine (or outer) side, 2 acyl side, 3 side chain; on linkers, the order of the positions; unused ones are H or OH. Side chains are listed from the residue outwards. Peptide text beside a SMILES is read from it. * marks the point of attachment. C20 diacid = O=C(O)CCCCCCCCCCCCCCCCCCC(=O)*; C18 diacid = O=C(O)CCCCCCCCCCCCCCCCC(=O)*; γGlu = O=C(O)[C@H](CCC(=O)[*:2])N[*:1]; Palmitoyl = CCCCCCCCCCCCCCCC(=O)*

With `CCCCCCCCCCCCCCCC(=O)N[C@@H](CCC(=O)O)C(=O)N[C@@H](C)C(=O)N[C@@H](CO)C(=O)N[C@@H](CCC(=O)O)C(=O)N[C@@H](CC(C)C)C(=O)N[C@@H](CO)C(=O)N[C@H](C(=O)N[C@@H](C)C(=O)N[C@@H](C)C(=O)N[C@@H](CC(C)C)C(=O)NCC(=O)N[C@@H](CCCNC(=N)N)C(=O)N[C@@H](CC(C)C)C(=O)N[C@@H](CO)C(=O)N[C@@H](C)C(=O)N[C@@H](CCC(=O)O)C(=O)N[C@@H](CC(C)C)C(=O)N[C@@H](Cc1cnc[nH]1)C(=O)N[C@@H](CCC(=O)O)C(=O)N[C@@H](CC(C)C)C(=O)N[C@@H](C)C(=O)N[C@H](C(=O)N[C@@H](CC(C)C)C(=O)N1CCC[C@H]1C(=O)N[C@@H](CCCNC(=N)N)C(=O)N[C@H](C(=O)N[C@@H](CCC(=O)O)C(=O)N[C@H](C(=O)NCC(=O)N1CCC[C@H]1C(=O)N[C@@H](CCC(=O)O)C(=O)N[C@@H](CO)C(=O)N1CCC[C@H]1C(N)=O)[C@@H](C)O)[C@@H](C)O)[C@@H](C)O)[C@@H](C)O` [compound 7, [N-terminal(C16)]mimylin] (Palmitoyl-EASELSTAALGRLSAELHELATLPRTETGPESP-NH2), the Solubility result (pH 3.0) is “≧200 μM”; the Solubility entry (pH 4.0) is listed as “≧200 μM”; the Solubility entry (pH 5.0) is “≧200 μM”; the Solubility entry (pH 6.0) is given as “≧200 μM”; the Solubility result (pH 6.5) is recorded as “≧200 μM”; the Solubility result (pH 7.0) is given as “≧200 μM”. Besides, the Solubility result is “≧200 μM” (pH 7.5) and “≧200 μM” (pH 8.0).

As for `CC(C)C[C@H](NC(=O)CNC(=O)[C@H](CO)NC(=O)[C@H](C)N)C(=O)N[C@@H](CO)C(=O)N[C@H](C(=O)N[C@@H](C)C(=O)N[C@@H](C)C(=O)N[C@@H](CC(C)C)C(=O)NCC(=O)N[C@@H](CCCNC(=N)N)C(=O)N[C@@H](CC(C)C)C(=O)N[C@@H](CO)C(=O)N[C@@H](CCC(N)=O)C(=O)N[C@@H](CCC(=O)O)C(=O)N[C@@H](CC(C)C)C(=O)N[C@@H](Cc1cnc[nH]1)C(=O)N[C@@H](CCC(=O)O)C(=O)N[C@@H](CC(C)C)C(=O)N[C@@H](CCC(N)=O)C(=O)N[C@H](C(=O)N[C@@H](Cc1ccc(O)cc1)C(=O)N1CCC[C@H]1C(=O)N[C@@H](CCCNC(=N)N)C(=O)N[C@H](C(=O)N[C@@H](CCC(=O)O)C(=O)N[C@H](C(=O)NCC(=O)N[C@@H](CO)C(=O)N[C@@H](CCCCNC(=O)CC[C@H](NC(=O)CCCCCCCCCCCCCCCCCCC(=O)O)C(=O)O)C(=O)N[C@H](C(=O)N[C@@H](Cc1ccc(O)cc1)C(N)=O)[C@@H](C)O)[C@@H](C)O)[C@@H](C)O)[C@@H](C)O)[C@@H](C)O` [compound 107, [des1, 4G, 15Q, 21Q, 23Y, 30S, 31K(C20 diacid-gGlu), 32T, 33Y]mimylin] (H-ASGLSTAALGRLSQELHELQTYPRTETGSK([γGlu-C20 diacid])TY-NH2), the Solubility result runs as follows: (pH 3.0) “≧200 μM”; (pH 4.0) “≧200 μM”; (pH 5.0) “≧200 μM”; (pH 7.5) “≧200 μM”; (pH 8.0) “≧200 μM”. Besides, the solubility at 18 h is, setting by setting: (pH 6.0) 148 µM (≈ 580 µg/mL); (pH 6.5) 129 µM (≈ 506 µg/mL); (pH 7.0) 74 µM (≈ 290 µg/mL).

As to `CC(C)C[C@H](NC(=O)[C@H](C)NC(=O)[C@H](C)NC(=O)[C@@H](NC(=O)[C@H](CO)NC(=O)[C@H](CC(C)C)NC(=O)[C@H](CCC(N)=O)NC(=O)[C@H](CO)NC(=O)[C@H](C)NC(=O)CC[C@H](NC(=O)CCCCCCCCCCCCCCCCC(=O)O)C(=O)O)[C@@H](C)O)C(=O)NCC(=O)N[C@@H](CCCNC(=N)N)C(=O)N[C@@H](CC(C)C)C(=O)N[C@@H](CO)C(=O)N[C@@H](C)C(=O)N[C@@H](CCC(N)=O)C(=O)N[C@@H](CC(C)C)C(=O)N[C@@H](Cc1cnc[nH]1)C(=O)N[C@@H](CCC(=O)O)C(=O)N[C@@H](CC(C)C)C(=O)N[C@@H](C)C(=O)N[C@H](C(=O)N[C@@H](CC(C)C)C(=O)N1CCC[C@H]1C(=O)N[C@@H](CCCNC(=N)N)C(=O)N[C@H](C(=O)N[C@@H](CCC(=O)O)C(=O)N[C@H](C(=O)NCC(=O)N[C@@H](CO)C(=O)NCC(=O)N[C@@H](CO)C(=O)N1CCC[C@H]1C(N)=O)[C@@H](C)O)[C@@H](C)O)[C@@H](C)O` [compound 87, [N-terminal(C18 diacid-gGlu), des1, 4Q, 16Q, 30S, 31G]mimylin] ({C18 diacid-γGlu}-ASQLSTAALGRLSAQLHELATLPRTETGSGSP-NH2), the Solubility entry was “≧200 μM” (pH 3); “≧200 μM” (pH 4); “≧200 μM” (pH 5); “≧200 μM” (pH 6); “≧200 μM” (pH 6.5); “≧200 μM” (pH 7). In addition, the Solubility result is, setting by setting: (pH 7.5) “≧200 μM”; (pH 8) “≧200 μM”.

As for `CC(C)C[C@H](NC(=O)[C@H](C)NC(=O)[C@H](C)NC(=O)[C@@H](NC(=O)[C@H](CO)NC(=O)[C@H](CC(C)C)NC(=O)[C@H](CCC(=O)O)NC(=O)[C@H](CO)NC(=O)[C@H](C)NC(=O)CC[C@H](NC(=O)CCCCCCCCCCCCCCCCCCC(=O)O)C(=O)O)[C@@H](C)O)C(=O)NCC(=O)N[C@@H](CCCNC(=N)N)C(=O)N[C@@H](CC(C)C)C(=O)N[C@@H](CO)C(=O)N[C@@H](C)C(=O)N[C@@H](CCC(=O)O)C(=O)N[C@@H](CC(C)C)C(=O)N[C@@H](Cc1cnc[nH]1)C(=O)N[C@@H](CCC(=O)O)C(=O)N[C@@H](CC(C)C)C(=O)N[C@@H](C)C(=O)N[C@H](C(=O)N[C@@H](CC(C)C)C(=O)N1CCC[C@H]1C(=O)N[C@@H](CCCNC(=N)N)C(=O)N[C@H](C(=O)N[C@@H](CCC(=O)O)C(=O)N[C@H](C(=O)NCC(=O)N[C@@H](CO)C(=O)NCC(=O)N[C@@H](CO)C(=O)N[C@@H](Cc1ccccc1)C(N)=O)[C@@H](C)O)[C@@H](C)O)[C@@H](C)O` [compound 61, [N-terminal(C20 diacid-gGlu), des1, 30S, 31G, 33F]mimylin] ({C20 diacid-γGlu}-ASELSTAALGRLSAELHELATLPRTETGSGSF-NH2), the Solubility result by setting is: (pH 3.0) “≧200 μM”; (pH 4.0) “≧200 μM”; (pH 6.0) “≧200 μM”; (pH 6.5) “≧200 μM”; (pH 7.0) “≧200 μM”; (pH 7.5) “≧200 μM”. Also, for the setting “pH 8.0”, the Solubility entry is given as “≧200 μM”. Besides, where the note is “pH 5.0”, the solubility at 18 h came out at 101 µM (≈ 376 µg/mL).

As for `CC(C)C[C@H](NC(=O)[C@H](CCC(=O)O)NC(=O)[C@H](Cc1cnc[nH]1)NC(=O)[C@H](CC(C)C)NC(=O)[C@H](CCC(=O)O)NC(=O)[C@H](C)NC(=O)[C@H](CO)NC(=O)[C@H](CC(C)C)NC(=O)[C@H](CCCNC(=N)N)NC(=O)CNC(=O)[C@H](CC(C)C)NC(=O)[C@@H](NC(=O)[C@H](C)NC(=O)[C@@H](NC(=O)[C@H](CO)NC(=O)[C@H](CC(C)C)NC(=O)[C@H](CCC(=O)O)NC(=O)[C@H](CO)NC(=O)[C@H](C)NC(=O)CC[C@H](NC(=O)CCCCCCCCCCCCCCCCC(=O)O)C(=O)O)[C@@H](C)O)C(C)C)C(=O)N[C@@H](C)C(=O)N[C@H](C(=O)N[C@@H](CC(C)C)C(=O)N1CCC[C@H]1C(=O)N[C@@H](CCCNC(=N)N)C(=O)N[C@H](C(=O)N[C@@H](CCC(=O)O)C(=O)N[C@H](C(=O)NCC(=O)N[C@@H](CO)C(=O)NCC(=O)N[C@@H](CO)C(=O)N1CCC[C@H]1C(N)=O)[C@@H](C)O)[C@@H](C)O)[C@@H](C)O` [compound 76, [N-terminal(C18 diacid-gGlu), des1, 9V, 30S, 31G]mimylin] ({C18 diacid-γGlu}-ASELSTAVLGRLSAELHELATLPRTETGSGSP-NH2), the Solubility entry reads like this: (pH 3.0) “≧200 μM”; (pH 4.0) “≧200 μM”; (pH 5.0) “≧200 μM”; (pH 6.0) “≧200 μM”; (pH 6.5) “≧200 μM”; (pH 7.0) “≧200 μM”. Also, the Solubility result (pH 7.5) is “≧200 μM” and the Solubility result (pH 8.0) is given as “≧200 μM”.

For the compound `CC(C)C[C@H](NC(=O)[C@H](C)NC(=O)[C@H](C)NC(=O)[C@@H](NC(=O)[C@H](CO)NC(=O)[C@H](CC(C)C)NC(=O)[C@H](CCC(=O)O)NC(=O)[C@H](CO)NC(=O)[C@H](C)NC(=O)CC[C@H](NC(=O)CCCCCCCCCCCCCCCCC(=O)O)C(=O)O)[C@@H](C)O)C(=O)NCC(=O)N[C@@H](CCCNC(=N)N)C(=O)N[C@@H](CC(C)C)C(=O)N[C@@H](CO)C(=O)N[C@@H](C)C(=O)N[C@@H](CCC(=O)O)C(=O)N[C@@H](CC(C)C)C(=O)N[C@@H](Cc1cnc[nH]1)C(=O)N[C@@H](CCC(=O)O)C(=O)N[C@@H](CC(C)C)C(=O)N[C@@H](C)C(=O)N[C@H](C(=O)N[C@@H](CC(C)C)C(=O)N1CCC[C@H]1C(=O)N[C@@H](CCCNC(=N)N)C(=O)N[C@H](C(=O)N[C@@H](CCC(=O)O)C(=O)N[C@H](C(=O)NCC(=O)N[C@@H](CO)C(=O)N[C@@H](CCC(=O)O)C(=O)N[C@@H](CO)C(=O)N1CCC[C@H]1C(N)=O)[C@@H](C)O)[C@@H](C)O)[C@@H](C)O` [compound 23, [N-terminal(C18 diacid-gGlu), des1, 30S]mimylin] ({C18 diacid-γGlu}-ASELSTAALGRLSAELHELATLPRTETGSESP-NH2), the Solubility entry runs as follows: (pH 3.0) “≧200 μM”; (pH 4.0) “≧200 μM”; (pH 5.0) “≧200 μM”; (pH 6.0) “≧200 μM”; (pH 6.5) “≧200 μM”; (pH 7.0) “≧200 μM”. Further, the Solubility result reads like this: (pH 7.5) “≧200 μM”; (pH 8.0) “≧200 μM”.

Values taken from patent publication US9593149B2, “Amylin and calcitonin receptor agonist” (Novo Nordisk A/S, priority 2014, dated 2017).
